Test results as given in patent US4868181A, “1,4-dihydropyridine derivatives with calcium agonist and alpha1 -antagonist activity” (E. I. Du Pont de Nemours and Company, priority 1987, dated 1989).

How the values were obtained:
alpha1 -adrenoceptors = assay: [^3 H]-prazosin binding assay (affinity for alpha1-adrenoceptors); details: rat brain membranes, 0.2 nM [^3 H]-prazosin, 60 minutes at 25°
Experimental: The [^3 H]-prazosin binding assay was carried out according to the method described by Timmermans, P. B. M. W. M., Schoop, A. M. C., and Van Zwieten, P. A.: Biochem Pharmacol., 31, 899-905, 1982 (1). The reaction mixture contained partially purified rat brain membranes (source of alpha1 -adrenoceptors), 0.2 nM [^3 H]-prazosin with or without potential displacer in Tris buffer. The mixture was incubated for 60 minutes at 25° and subsequently terminated by rapid filtration through glass fiber-filter. Receptor-bound [^3 H]-prazosin trapped in the filter was quantitated by scintillation counting. The inhibitory concentration (IC50) of potential displacer which gives 50% displacement of the total specifically bound [^3 H]-prazosin is presented as a measure of the affinity of such compound for the alpha1 -adrenoceptor.

Ca^2 + channels = target: T1, Ca^2 + channels (Rattus norvegicus, UniProt P22002); assay: [^3 H]-Nitrendipine binding assay (affinity for calcium channels); details: rat cardiac microsomes, 0.5 nM [^3 H]-nitrendipine, 60 minutes at 25°
T1 construct: rat cardiac microsomes (source of Ca^2 + channels); from tissue; host or cells: rat cardiac microsomes
Experimental: [^3 H]-Nitrendipine binding assay was carried out according to the method described by G. T. Bolger, et al., Biochem. Biophys. Res. Comm., 104, 1604-1609, 1982 (1). The reaction mixture contained rat cardiac microsomes (source of Ca^2 + channels), 0.5 nM [^3 H]-nitrendipinewith or without potential displacer in Tris buffer. The mixture was incubated for 60 minutes at 25° and subsequently terminated by rapid filtration through a glass fiber-filter. Membrane-bound [^3 H]-nitrendipine trapped in the filter was quantitated by scintillation counting. The inhibitory concentration (IC50) of potential displacer which gives 50% displacement of the total specifically bound [^3 H]-nitrendipine is presented as a measure of the affinity of such compound for the Ca^2 + channel.

guinea pig left atria = assay: Positive inotropic effect in guinea pig left atria; details: 37°; for EC50: left atria paced at 2Hz, cumulative addition to maximum 10^-4, read-out: EC50 (concentration that increases DT by 50% above the control DT); for Intrinsic Activity (ratio of the maximum effect of the test compound to that of Bay K 8644): relative to Bay K 8644, left atria paced at 2Hz
Experimental: Guinea pigs are killed by cervical dislocation. The left atria are removed and mounted at 1 gm resting tension in tissue baths containing oxygenated Krebs bicarbonate solution which is kept at 37°. The left atria are electrically paced at 2Hz with square wave pulses of 1 msec duration. The voltage is set at 1.5× threshold level.
After a one hour equilibration period, control values for developed tension (DT, gm) are recorded. Test compounds are then added to the baths, in a cumulative manner to a maximum concentration of 10^-4, to obtain a concentration-response curve. Treatment values of DT are obtained after the rug effect has reached a plateau and the exposure time for each concentration is 5-8 minutes. Percent change of the treatment value from the control value is calculated at each concentration of the test compound.

T1 sequence (P22002 whole entry, other chains not shown): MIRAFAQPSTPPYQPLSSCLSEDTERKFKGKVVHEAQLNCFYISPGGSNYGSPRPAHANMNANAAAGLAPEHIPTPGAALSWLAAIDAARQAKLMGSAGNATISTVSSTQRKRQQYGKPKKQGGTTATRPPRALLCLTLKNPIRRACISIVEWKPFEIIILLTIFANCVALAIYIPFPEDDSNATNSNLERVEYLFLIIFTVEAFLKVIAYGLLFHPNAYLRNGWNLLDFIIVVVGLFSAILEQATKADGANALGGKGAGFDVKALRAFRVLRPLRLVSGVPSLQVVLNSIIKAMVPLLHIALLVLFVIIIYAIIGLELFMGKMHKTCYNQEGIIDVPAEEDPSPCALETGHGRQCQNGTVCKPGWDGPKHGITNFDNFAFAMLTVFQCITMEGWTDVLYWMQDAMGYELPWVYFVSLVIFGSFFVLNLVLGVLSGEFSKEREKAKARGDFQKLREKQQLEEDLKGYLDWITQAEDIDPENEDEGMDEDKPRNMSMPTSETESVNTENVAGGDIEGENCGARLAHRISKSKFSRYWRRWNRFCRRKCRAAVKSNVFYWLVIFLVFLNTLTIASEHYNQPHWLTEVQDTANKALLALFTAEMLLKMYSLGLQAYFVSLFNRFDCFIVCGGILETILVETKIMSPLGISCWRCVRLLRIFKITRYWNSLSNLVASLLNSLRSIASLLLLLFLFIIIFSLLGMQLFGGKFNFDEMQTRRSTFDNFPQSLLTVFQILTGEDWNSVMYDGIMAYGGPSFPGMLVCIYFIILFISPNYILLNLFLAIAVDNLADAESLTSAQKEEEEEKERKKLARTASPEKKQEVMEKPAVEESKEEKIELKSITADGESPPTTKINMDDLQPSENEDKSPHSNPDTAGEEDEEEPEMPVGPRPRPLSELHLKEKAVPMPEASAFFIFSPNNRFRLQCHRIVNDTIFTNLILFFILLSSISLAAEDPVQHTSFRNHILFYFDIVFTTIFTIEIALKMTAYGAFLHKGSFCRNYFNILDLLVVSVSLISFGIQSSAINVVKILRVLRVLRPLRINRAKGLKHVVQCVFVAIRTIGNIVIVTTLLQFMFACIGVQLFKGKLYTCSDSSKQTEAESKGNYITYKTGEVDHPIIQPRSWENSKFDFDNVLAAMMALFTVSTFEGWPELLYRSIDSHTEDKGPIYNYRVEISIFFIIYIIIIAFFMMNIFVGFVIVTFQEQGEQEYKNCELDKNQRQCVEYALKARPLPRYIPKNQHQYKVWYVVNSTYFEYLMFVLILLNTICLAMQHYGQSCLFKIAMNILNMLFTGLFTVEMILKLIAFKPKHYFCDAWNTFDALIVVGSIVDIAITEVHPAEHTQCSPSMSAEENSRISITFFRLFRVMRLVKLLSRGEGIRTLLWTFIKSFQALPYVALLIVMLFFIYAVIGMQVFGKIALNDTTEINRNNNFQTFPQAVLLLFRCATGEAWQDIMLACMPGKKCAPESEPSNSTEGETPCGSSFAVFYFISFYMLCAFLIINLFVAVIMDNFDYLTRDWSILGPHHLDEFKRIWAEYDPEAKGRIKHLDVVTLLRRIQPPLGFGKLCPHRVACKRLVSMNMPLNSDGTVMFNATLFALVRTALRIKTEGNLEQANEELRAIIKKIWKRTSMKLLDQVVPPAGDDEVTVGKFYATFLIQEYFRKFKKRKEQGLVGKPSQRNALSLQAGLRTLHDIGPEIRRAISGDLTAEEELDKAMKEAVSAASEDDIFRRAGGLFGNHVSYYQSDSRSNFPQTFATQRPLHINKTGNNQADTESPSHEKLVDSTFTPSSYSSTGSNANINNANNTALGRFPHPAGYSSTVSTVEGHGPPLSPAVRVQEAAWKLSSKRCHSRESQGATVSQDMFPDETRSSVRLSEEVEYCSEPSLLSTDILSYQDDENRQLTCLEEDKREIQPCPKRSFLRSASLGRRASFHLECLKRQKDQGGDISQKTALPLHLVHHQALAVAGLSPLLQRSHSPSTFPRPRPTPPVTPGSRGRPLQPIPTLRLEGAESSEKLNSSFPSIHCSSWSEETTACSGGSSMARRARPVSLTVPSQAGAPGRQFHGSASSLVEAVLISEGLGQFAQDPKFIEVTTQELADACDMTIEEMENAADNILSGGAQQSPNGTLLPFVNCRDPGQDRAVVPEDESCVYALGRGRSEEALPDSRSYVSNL
T1 sequence (P54290 25-944 partner limits assumed, other chains not shown): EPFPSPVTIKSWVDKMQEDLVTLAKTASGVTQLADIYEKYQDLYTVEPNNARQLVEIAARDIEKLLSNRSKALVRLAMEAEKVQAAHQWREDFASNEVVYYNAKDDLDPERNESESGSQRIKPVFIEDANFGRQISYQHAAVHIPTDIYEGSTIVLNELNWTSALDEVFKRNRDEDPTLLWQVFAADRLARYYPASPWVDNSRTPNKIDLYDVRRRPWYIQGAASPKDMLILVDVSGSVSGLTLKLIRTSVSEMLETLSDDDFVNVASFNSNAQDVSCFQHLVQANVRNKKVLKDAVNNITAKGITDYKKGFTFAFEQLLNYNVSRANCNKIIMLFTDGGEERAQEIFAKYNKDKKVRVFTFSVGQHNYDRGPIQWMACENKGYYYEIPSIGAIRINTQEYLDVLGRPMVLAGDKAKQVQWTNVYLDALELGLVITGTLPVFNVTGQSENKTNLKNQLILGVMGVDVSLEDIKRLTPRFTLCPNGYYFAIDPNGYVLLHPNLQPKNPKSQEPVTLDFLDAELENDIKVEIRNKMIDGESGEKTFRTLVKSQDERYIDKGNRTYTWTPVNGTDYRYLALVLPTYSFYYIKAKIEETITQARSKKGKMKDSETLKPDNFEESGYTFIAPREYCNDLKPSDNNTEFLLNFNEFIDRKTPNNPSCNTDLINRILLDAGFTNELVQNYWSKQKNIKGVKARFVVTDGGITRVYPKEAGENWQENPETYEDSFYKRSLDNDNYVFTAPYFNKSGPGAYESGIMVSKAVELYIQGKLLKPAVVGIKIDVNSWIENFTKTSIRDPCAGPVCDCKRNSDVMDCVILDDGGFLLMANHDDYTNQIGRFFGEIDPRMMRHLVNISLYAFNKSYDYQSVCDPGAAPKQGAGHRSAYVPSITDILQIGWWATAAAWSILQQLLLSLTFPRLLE
T1 sequence (P54290 945-1091 partner limits assumed, other chains not shown): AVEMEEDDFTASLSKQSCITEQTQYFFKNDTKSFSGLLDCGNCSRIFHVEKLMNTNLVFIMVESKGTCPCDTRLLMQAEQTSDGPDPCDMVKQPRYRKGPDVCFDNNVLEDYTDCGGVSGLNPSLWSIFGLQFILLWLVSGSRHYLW

| SMILES | IC50 (alpha1 -adrenoceptors) [nM] | IC50 (Ca^2 + channels) [nM] | EC50 (guinea pig left atria) [nM] | Intrinsic Activity (ratio of the maximum effect of the test compound to that of Bay K 8644) (guinea pig left atria) [%] |
| --- | --- | --- | --- | --- |
| COC(=O)C1=C(C)NC(C)=C([N+](=O)[O-])C1c1cccc(OCC2OC2CN2CCN(c3ccccc3OC)CC2)c1 (centres unmarked) [Example 136] | > 10000 | > 10000 | – | – |
| COc1ccccc1N1CCN(CCCCOc2ccccc2C2C(C(=O)OC(C)(C)C)=C(C)NC(C)=C2[N+](=O)[O-])CC1 (centres unmarked) [Example 146] | 990 | 470 | – | – |
| COC(=O)C1=C(C)NC(C)=C([N+](=O)[O-])C1c1cc(OC)ccc1OCCCCCN1CCN(c2ccccc2OC)CC1 (centres unmarked) [Example 153] | 120 | 880 | – | – |
| COC(=O)C1=C(C)NC(C)=C([N+](=O)[O-])C1c1ccccc1OCCCN1CCN(c2ccccc2OC)CC1 (centres unmarked) [Example 88] | 260 | 4800 | 2000 | 50 |
| COC(=O)C1=C(C)NC(C)=C([N+](=O)[O-])C1c1cccc(OCCCCN2CCN(c3ccccc3OC)CC2)c1 (centres unmarked) [Example 107] | 410 | 4100 | > 100000 | 0 |
| COC(=O)C1=C(C)NC(C)=C([N+](=O)[O-])C1c1cccc(OC)c1OCCCCN1CCN(c2ccccc2OC)CC1 (centres unmarked) [Example 110] | 160 | 1000 | > 100000 | 0 |
| COC(=O)C1=C(C)NC(C)=C([N+](=O)[O-])C1c1ccccc1OCCN1CCN(c2ncccn2)CC1 (centres unmarked) [Example 154] | 9300 | 1400 | – | – |
| COC(=O)C1=C(C)NC(C)=C([N+](=O)[O-])C1c1cccc(OCCCN2CCN(c3ccccn3)CC2)c1 (centres unmarked) [Example 128] | 100 | 5700 | – | – |
| COc1ccccc1N1CCN(CCCOc2cccc(C3C(C(=O)Nc4ccccc4)=C(C)NC(C)=C3[N+](=O)[O-])c2)CC1 (centres unmarked) [Example 122] | 230 | > 10000 | – | – |
| COC(=O)C1=C(C)NC(C)=C([N+](=O)[O-])C1c1cccc(OCCCCCN2CCN(c3ccccc3OC)CC2)c1[N+](=O)[O-] (centres unmarked) [Example 151] | 200 | 4700 | – | – |
| COC(=O)C1=C(C)NC(C)=C([N+](=O)[O-])C1c1cc(OCCN2CCN(c3ccccc3OC)CC2)ccc1[N+](=O)[O-] (centres unmarked) [Example 68] | 590 | 16000 | – | – |
| COC(=O)C1=C(C)NC(C)=C([N+](=O)[O-])C1c1ccccc1OCCCCN1CCN(c2ncccn2)CC1 (centres unmarked) [Example 60, 1,4-dihydro-2,6-dimethyl-'nitro-4-[2-(4-(4-(2-pyrimidinyl)-piperazinyl)butoxy)phenyl]methylester-36pyridinecarboxylic acid] | 4900 | 1000 | 1000 | 50 |
| COc1ccccc1N1CCN(CCCOc2ccccc2C2C(C(=O)OC(C)C)=C(C)NC(C)=C2[N+](=O)[O-])CC1 (centres unmarked) [Example 134] | 340 | 8400 | – | – |
| COC(=O)C1=C(C)NC(C)=C([N+](=O)[O-])C1c1cccc(OCCCN2CCN(c3ccccc3Cl)CC2)c1 (centres unmarked) [Example 132] | 130 | 2300 | – | – |
| CCOc1cccc(C2C(C(=O)OC)=C(C)NC(C)=C2[N+](=O)[O-])c1OCCCCN1CCN(c2ccccc2OC)CC1 (centres unmarked) [Example 109] | 610 | 790 | > 100000 | 0 |
| COC(=O)C1=C(C)NC(C)=C([N+](=O)[O-])C1c1ccccc1OCCCCN1CCN(c2ccccc2OC)CC1 (centres unmarked) [Example 105] | 180 | 220 | 3000 | 20 |
| COC(=O)C1=C(C)NC(C)=C([N+](=O)[O-])C1c1cccc(OC)c1OCCN1CCN(c2ccccc2OC)CC1 (centres unmarked) [Example 87] | 48 | 2900 | > 100000 | 0 |
| CCOC(=O)C1=C(C)NC(C)=C([N+](=O)[O-])C1c1cccc(OCCCN2CCN(c3ccccn3)CC2)c1 (centres unmarked) [Example 126] | 290 | 5000 | – | – |
| C=CCc1cccc(C2C(C(=O)OC)=C(C)NC(C)=C2[N+](=O)[O-])c1OCCCCN1CCN(c2ccccc2OC)CC1 (centres unmarked) [Example 144] | 310 | 1300 | – | – |
| COC(=O)C1=C(C)NC(C)=C([N+](=O)[O-])C1c1ccc(OCCCN2CCN(c3ccccc3OC)CC2)cc1 (centres unmarked) [Example 135] | 430 | 6700 | – | – |

| SMILES | IC50 (alpha1 -adrenoceptors) [nM] | IC50 (Ca^2 + channels) [nM] | EC50 (guinea pig left atria) [nM] | Intrinsic Activity (ratio of the maximum effect of the test compound to that of Bay K 8644) (guinea pig left atria) [%] |
| --- | --- | --- | --- | --- |
| COc1ccccc1N1CCN(CCCCOc2ccccc2C2C(C(=O)OC(C)C)=C(C)NC(C)=C2[N+](=O)[O-])CC1 (centres unmarked) [Example 133] | 750 | 420 | – | – |
| COC(=O)C1=C(C)NC(C)=C([N+](=O)[O-])C1c1cc(OC)ccc1OCCCCN1CCN(c2ccccc2OC)CC1 (centres unmarked) [Example 152] | 270 | 690 | – | – |
| COC(=O)C1=C(C)NC(C)=C([N+](=O)[O-])C1c1cc(Cl)cc(Cl)c1OCCCCCN1CCN(c2ccccc2OC)CC1 (centres unmarked) [Example 141] | 830 | 630 | – | – |
| COC(=O)C1=C(C)NC(C)=C([N+](=O)[O-])C1c1cc(Cl)ccc1OCCCCCN1CCN(c2ccccc2OC)CC1 (centres unmarked) [Example 145] | 630 | 180 | – | – |
| COc1ccccc1N1CCN(CCOC(=O)C2=C(C)NC(C)=C([N+](=O)[O-])C2c2cccc(C(F)(F)F)c2)CC1 (centres unmarked) [Example 1, 1,4-Dihydro-2,6-dimethyl-5-nitro-4-[3-(trifluoromethyl)phenyl]-[2-[4-(2-methoxyphenyl)-1-piperazinyl]ethyl]ester-3-pyridinecarboxylic acid] | 960 | – | 27000 | 30 |
| COC(=O)C1=C(C)NC(C)=C([N+](=O)[O-])C1c1ccc(OCCCN2CCN(c3ccccc3OC)CC2)c([N+](=O)[O-])c1 (centres unmarked) [Example 137] | 440 | 6100 | – | – |
| COC(=O)C1=C(C)NC(C)=C([N+](=O)[O-])C1c1cccc(OC)c1OCC=CCN1CCN(c2ncccn2)CC1 (centres unmarked) [Example 121] | 8200 | 3000 | – | – |
| COC(=O)C1=C(C)NC(C)=C([N+](=O)[O-])C1c1cccc(OCC#CCN2CCN(c3ccccc3OC)CC2)c1 (centres unmarked) [Example 127] | 2700 | 2000 | – | – |
| COC(=O)C1=C(C)NC(C)=C([N+](=O)[O-])C1c1cccc(OCCCN2CCN(c3ccccc3OC)CC2)c1[N+](=O)[O-] (centres unmarked) [Example 149] | 290 | 8900 | – | – |
| COC(=O)C1=C(C)NC(C)=C([N+](=O)[O-])C1c1cccc(OCCCN2CCN(c3ncccn3)CC2)c1 (centres unmarked) [Example 124] | 1200 | 18000 | – | – |
| COc1ccccc1N1CCN(CCCCOc2ccccc2C2C(C(=O)Nc3ccccc3)=C(C)NC(C)=C2[N+](=O)[O-])CC1 (centres unmarked) [Example 115] | 130 | 110000 | – | – |
| COC(=O)C1=C(C)NC(C)=C([N+](=O)[O-])C1c1cccc(OCCCN2CCN(c3ccccc3C)CC2)c1 (centres unmarked) [Example 131] | 150 | 3600 | – | – |
| COC(=O)C1=C(C)NC(C)=C([N+](=O)[O-])C1c1ccccc1OCCCN1CCN(c2ccccc2C(F)(F)F)CC1 (centres unmarked) [Example 104] | 8600 | 200 | – | – |
| COC(=O)C1=C(C)NC(C)=C([N+](=O)[O-])C1c1ccccc1OCC=CCN1CCN(c2ccccc2OC)CC1 (centres unmarked) [Example 119] | 490 | 800 | – | – |
| COC(=O)C1=C(C)NC(C)=C([N+](=O)[O-])C1c1cc([N+](=O)[O-])ccc1OCCCCN1CCN(c2ccccc2OC)CC1 (centres unmarked) [Example 138] | 280 | 220 | – | – |
| COC(=O)C1=C(C)NC(C)=C([N+](=O)[O-])C1c1ccccc1OCCCCN1CCN(c2ccccc2C)CC1 (centres unmarked) [Example 118] | 850 | 540 | – | – |
| COC(=O)C1=C(C)NC(C)=C([N+](=O)[O-])C1c1cc(Cl)ccc1OCCCCN1CCN(c2ccccc2OC)CC1 (centres unmarked) [Example 143] | 350 | 190 | – | – |
| COc1ccccc1N1CCN(CCCCOC(=O)C2=C(C)NC(C)=C([N+](=O)[O-])C2c2cccc(C(F)(F)F)c2)CC1 (centres unmarked) [Example 57] | 970 | 990 | – | – |
| COC(=O)C1=C(C)NC(C)=C([N+](=O)[O-])C1c1ccccc1OCCCCCN1CCN(c2ncccn2)CC1 (centres unmarked) [Example 155] | 2600 | 250 | – | – |
| COC(=O)C1=C(C)NC(C)=C([N+](=O)[O-])C1c1cccc(OCCCCN2CCN(c3ccccc3OC)CC2)c1[N+](=O)[O-] (centres unmarked) [Example 150] | 220 | 4000 | – | – |
